Experimental data taken from publication PMC5520492, “Inhibition of DNA2 nuclease as a therapeutic strategy targeting replication stress in cancer cells” (Oncogenesis, 2017).

Columns and labels:
EXO1 = biological target: T1, EXO1 (Homo sapiens, UniProt Q9UQ84); experiment: EXO1 nuclease assay (2 kb dsDNA degradation); assay type: biochemical; settings: 10 µM; EXO1 5 nM
T1 construct: made in house
T1 sequence (Q9UQ84 1-846): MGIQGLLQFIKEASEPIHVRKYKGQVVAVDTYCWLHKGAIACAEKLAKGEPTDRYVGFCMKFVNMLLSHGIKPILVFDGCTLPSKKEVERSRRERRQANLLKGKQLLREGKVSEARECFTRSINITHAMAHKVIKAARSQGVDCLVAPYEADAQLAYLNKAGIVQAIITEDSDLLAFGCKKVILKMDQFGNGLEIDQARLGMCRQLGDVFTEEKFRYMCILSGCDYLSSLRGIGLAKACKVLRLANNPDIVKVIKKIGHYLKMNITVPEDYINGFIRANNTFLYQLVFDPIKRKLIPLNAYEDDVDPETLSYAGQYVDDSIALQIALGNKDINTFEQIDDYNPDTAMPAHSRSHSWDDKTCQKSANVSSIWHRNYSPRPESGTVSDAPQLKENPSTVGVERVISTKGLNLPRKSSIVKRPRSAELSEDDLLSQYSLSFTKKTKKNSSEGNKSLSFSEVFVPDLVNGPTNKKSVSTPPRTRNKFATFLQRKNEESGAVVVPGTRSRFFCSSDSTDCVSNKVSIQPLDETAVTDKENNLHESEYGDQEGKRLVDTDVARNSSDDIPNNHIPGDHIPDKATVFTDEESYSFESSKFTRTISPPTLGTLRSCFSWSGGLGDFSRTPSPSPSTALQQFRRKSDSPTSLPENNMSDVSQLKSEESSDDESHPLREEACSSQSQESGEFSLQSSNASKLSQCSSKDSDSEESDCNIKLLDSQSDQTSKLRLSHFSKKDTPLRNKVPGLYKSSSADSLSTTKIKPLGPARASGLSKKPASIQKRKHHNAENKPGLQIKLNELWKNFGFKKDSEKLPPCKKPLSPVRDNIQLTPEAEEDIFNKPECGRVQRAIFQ
Protocol: Nuclease assays were performed in buffer R (20 mM Na-HEPES pH 7.5, 1 mM ATP, 0.1 mM DTT, 100 μg/ml bovine serum albumin, 0.05% Triton X-100, 2 mM MgCl2, 100 mM KCl) and contained 0.5 nM ends (2-kb substrate) or 5 nM ends (the ssDNA oligonucleotide PSOL6929) of DNA. Reactions containing Bloom syndrome also included an ATP regenerating system consisting of 10 mM creatine phosphate and 50 μg/ml creatine kinase. In control reactions, DMSO was used in place of the inhibitor. Reactions with DNA2 alone were incubated at 30 °C, and those with DNA2-Bloom syndrome-Replication protein A and EXO1 were incubated at 37 °C for the indicated times. […] Gels were dried onto DEAE paper on top of Whatman filter paper (GE, Issaquah, WA, USA) and then analyzed in a BioRad Personal Molecular Imager FX phosphorimager. Band intensity was quantified using Image Lab software (Bio-Rad, Hercules, CA, USA). The fraction of DNA substrate digested was determined by measuring the amount of substrate remaining and normalizing to the total substrate in the negative control lane containing no protein.
Figure S2. […] (b) Plots showing quantitation of the experiments shown in a. […] (d) Plots showing quantitation of the experiments shown in c. […] (f) Plot showing quantitation of the experiment in e. […]

[1] = tested on: AsPC-1, PANC-1 versus DT-PD59 cells; experiment: MTT proliferation, pancreatic cell lines; assay type: cell-based, human; settings: 48-h treatment
Protocol: Figure 5 Oncogene induction enhances sensitivity of cancer cells to NSC-105808. (a-e) Graphs showing proliferation of indicated cell lines in response to a 48-h treatment with the indicated concentrations of NSC-105808. Proliferation relative to cells treated with vehicle alone was determined by the 3-(4,5-dimethylthiazol-2-yl)-2,5-diphenyltetrazolium bromide (MTT) assay. Each value represents the mean±s.e.m. from three independent experiments. (a) Proliferation of control pancreatic epithelial cells DT-PD59 and transformed pancreatic cancer cells AsPC-1 and PANC-1. (b) Proliferation of normal breast epithelial cells MCF10A and breast cancer cells Hs578T and BT549. (c) Proliferation of MCF10A cells with or without H-Ras expression. H-Ras was induced with doxycycline (2 μg/ml). […]
Cell proliferation was measured by 3-(4,5-dimethylthiazol-2-yl)-2,5-diphenyltetrazolium bromide (Sigma) reduction (Supplementary Materials and Methods).
To determine the cell proliferation rate, 1000 cells/well were seeded in a 96-well plate in a total volume of 100 µl in triplicate in each experiment. […] Plates were read at 490 nm and 650 nm (background) in a
microplate reader (Molecular Devices). After the subtraction of background, cell viability was calculated as fold change relative to control cells.

Structure (SMILES): NC1=C(Br)C(=O)c2ncccc2C1=O [NSC-105808, 6-amino-7-bromoquinoline-5,8-dione]
- Effect on nuclease activity of EXO1 (EXO1): does not inhibit
- Sensitivity of transformed pancreatic cancer cell lines compared with non-transformed DT-PD59 [1]: more sensitive
